We go through 14 molecules from US20260042762A1 (Kymera Therapeutics, Inc., priority 2018, published 2026).

The assay deals with T1, MerTK (Homo sapiens, UniProt Q12866).
T1 construct: endogenous in cells; host or cells: Jurkat cells
T1 sequence (Q12866 21-999): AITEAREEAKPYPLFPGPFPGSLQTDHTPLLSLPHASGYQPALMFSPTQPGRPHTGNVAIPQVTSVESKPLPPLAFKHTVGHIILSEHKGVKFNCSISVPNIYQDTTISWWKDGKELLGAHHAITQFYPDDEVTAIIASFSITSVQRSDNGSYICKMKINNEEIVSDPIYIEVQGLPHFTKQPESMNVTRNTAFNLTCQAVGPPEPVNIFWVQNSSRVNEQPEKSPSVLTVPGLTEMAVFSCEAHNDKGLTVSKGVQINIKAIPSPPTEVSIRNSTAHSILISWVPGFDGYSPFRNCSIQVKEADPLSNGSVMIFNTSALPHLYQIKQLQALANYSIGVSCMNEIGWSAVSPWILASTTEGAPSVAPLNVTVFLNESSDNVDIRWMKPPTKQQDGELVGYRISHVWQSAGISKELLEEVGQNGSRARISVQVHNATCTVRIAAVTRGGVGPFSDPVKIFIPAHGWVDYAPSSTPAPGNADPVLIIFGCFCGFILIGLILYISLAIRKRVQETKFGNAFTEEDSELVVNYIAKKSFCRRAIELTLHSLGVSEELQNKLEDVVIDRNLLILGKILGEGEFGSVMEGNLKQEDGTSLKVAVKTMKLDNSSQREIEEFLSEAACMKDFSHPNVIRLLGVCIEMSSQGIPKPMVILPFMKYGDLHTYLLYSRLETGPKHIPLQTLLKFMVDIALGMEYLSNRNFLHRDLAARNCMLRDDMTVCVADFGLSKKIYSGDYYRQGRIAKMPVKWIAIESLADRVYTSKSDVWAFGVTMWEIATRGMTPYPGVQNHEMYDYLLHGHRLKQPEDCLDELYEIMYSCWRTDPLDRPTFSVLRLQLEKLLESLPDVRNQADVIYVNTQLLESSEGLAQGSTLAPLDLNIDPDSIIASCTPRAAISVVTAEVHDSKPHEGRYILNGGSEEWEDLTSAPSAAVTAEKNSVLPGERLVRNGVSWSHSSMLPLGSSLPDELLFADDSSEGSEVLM
The experiment in a line: MerTk degradation in Jurkat cells (Western blot). In kind it is cell-based. The following applies: Jurkat, 4 h, 0.001-1 μM, 4 hour-incubation at 37° C., read-out: Jurkat Max % MerTK Degradation. The essentials: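 Jurkat cells treated 4 h at 37 °C with compound at 0.001-1 μM final. RIPA lysates quantified by BCA, then MerTK probed by Western blot against actin loading control with IR-dye secondaries and Odyssey imaging.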
On the technique in general: In western blotting, separated proteins are transferred to a membrane and probed.
On to `Cc1ncsc1-c1ccc(CNC(=O)[C@@H]2C[C@@H](O)CN2C(=O)[C@@H](NC(=O)COCCOCCN2CCN(Cc3ccc(-c4cn([C@H]5CC[C@H](O)CC5)c5nc(NCCC(F)(F)F)ncc45)cc3)CC2)C(C)(C)C)cc1` [I-165, (2S,4R)-1-[(2S)-3,3-dimethyl-2-[2-[2-(2-[4-[(4-[7-[trans-4-hydroxycyclohexyl]-2-[(3,3,3-trifluoropropyl)amino]pyrrolo[2,3-d]pyrimidin-5-yl]phenyl)methyl]piperazin-1-yl]ethoxy)ethoxy]acetamido]butanoyl]-4-hydroxy-N-[[4-(4-methyl-1,3-thiazol-5-yl)phenyl]methyl]pyrrolidine-2-carboxamide], for which the Dmax is under 20%.

On to `Cc1ncsc1-c1ccc(CNC(=O)[C@@H]2C[C@@H](O)CN2C(=O)[C@@H](NC(=O)COCCOCCOCCN2CCN(Cc3ccc(-c4cn([C@H]5CC[C@H](O)CC5)c5nc(NCCC(F)(F)F)ncc45)cc3)CC2)C(C)(C)C)cc1` [I-166, (2S,4R)-1-[(2S)-3,3-dimethyl-2-(2-[2-[2-(2-[4-[(4-[7-[trans-4-hydroxycyclohexyl]-2-[(3,3,3-trifluoropropyl)amino]pyrrolo[2,3-d]pyrimidin-5-yl]phenyl)methyl]piperazin-1-yl]ethoxy)ethoxy]ethoxy]acetamido)butanoyl]-4-hydroxy-N-[[4-(4-methyl-1,3-thiazol-5-yl)phenyl]methyl]pyrrolidine-2-carboxamide], for which the Dmax was over 50%.

With `CN(C)c1cccc2c(S(=O)(=O)Nc3cccc(-c4cnc(NCCOCCN5CCN(Cc6ccc(-c7cn([C@H]8CC[C@H](O)CC8)c8nc(NCCC(F)(F)F)ncc78)cc6)CC5)nc4N4CCC(c5ccccc5)C4C(=O)O)c3)cccc12` (stereo partly drawn) [I-167, 1-(5-[3-[5-(Dimethylamino)naphthalene-1-sulfonamido]phenyl]-2-[[2-(2-[4-[(4-[7-[trans-4-hydroxycyclohexyl]-2-[(3,3,3-trifluoropropyl)amino]pyrrolo[2,3-d]pyrimidin-5-yl]phenyl)methyl]piperazin-1-yl]ethoxy)ethyl]amino]pyrimidin-4-yl)-3-phenylpyrrolidine-2-carboxylic acid], the Dmax is under 20%.

In the case of `CN(C)c1cccc2c(S(=O)(=O)Nc3cccc(-c4cnc(NCCOCCOCCN5CCN(Cc6ccc(-c7cn([C@H]8CC[C@H](O)CC8)c8nc(NCCC(F)(F)F)ncc78)cc6)CC5)nc4N4CCC(c5ccccc5)C4C(=O)O)c3)cccc12` (stereo partly drawn) [I-168, 1-(5-[3-[5-(Dimethylamino)naphthalene-1-sulfonamido]phenyl]-2-([2-[2-(2-[4-[(4-[7-[trans-4-hydroxycyclohexyl]-2-[(3,3,3-trifluoropropyl)amino]pyrrolo[2,3-d]pyrimidin-5-yl]phenyl)methyl]piperazin-1-yl]ethoxy)ethoxy]ethyl]amino)pyrimidin-4-yl)-3-phenylpyrrolidine-2-carboxylic acid], the Dmax was under 20%.

As for `CN(C)c1cccc2c(S(=O)(=O)Nc3cccc(-c4cnc(NCCOCCOCCOCCN5CCN(Cc6ccc(-c7cn([C@H]8CC[C@H](O)CC8)c8nc(NCCC(F)(F)F)ncc78)cc6)CC5)nc4N4CCC(c5ccccc5)C4C(=O)O)c3)cccc12` (stereo partly drawn) [I-169, 1-(5-[3-[5-(dimethylamino)naphthalene-1-sulfonamido]phenyl]-2-(12-[4-[(4-[7-[trans-4-hydroxycyclohexyl]-2-[(3,3,3-trifluoropropyl)amino]pyrrolo[2,3-d]pyrimidin-5-yl]phenyl)methyl]piperazin-1-yl]-4,7,10-trioxa-1-azadodecan-1-yl)pyrimidin-4-yl)-3-phenylpyrrolidine-2-carboxylic acid], the Dmax was under 20%.

`Cn1c(=O)n([C@H]2CCC(=O)NC2=O)c2ccc(CCO[C@H]3C[C@H](N4CCN(Cc5ccc(-c6cn([C@H]7CC[C@H](O)CC7)c7nc(NCCC(F)(F)F)ncc67)cc5)CC4)C3)cc21` [I-170, 3-(3-methyl-2-oxo-5-[2-[trans-3-[4-[(4-[7-[trans-4-hydroxycyclohexy1]-2-[(3,3,3-trifluoropropyl)amino]pyrrolo[2,3-d]pyrimidin-5-yl]phenyl)methyl]piperazin-1-yl]cyclobutoxy]ethyl]-1,3-benzodiazol-1-y1)piperidine-2,6-dione; formic acid]: the Dmax is over 50%.

For `Cn1c(=O)n([C@H]2CCC(=O)NC2=O)c2ccc(CCCOCCOC3CCN(C[C@H]4CC[C@@H](c5cn([C@H]6CC[C@H](O)CC6)c6nc(NCCC(F)(F)F)ncc65)CC4)CC3)cc21` [I-171, 3-[3-methyl-2-oxo-5-(3-[2-[(1-[[cis-4-[7-[trans-4-hydroxycyclohexyl]-2-[(3,3,3-trifluoropropyl)amino]pyrrolo[2,3-d]pyrimidin-5-yl]cyclohexyl]methyl]piperidin-4-yl)oxy]ethoxy]propyl)-1,3-benzodiazol-1-y1]piperidine-2,6-dione], the Dmax was over 50%.

As for `Cn1c(=O)n([C@H]2CCC(=O)NC2=O)c2ccc(CCCOCCOCC3CCN(C[C@H]4CC[C@H](c5cn([C@H]6CC[C@H](O)CC6)c6nc(NCCC(F)(F)F)ncc65)CC4)CC3)cc21` [I-172, 3-[3-methyl-2-oxo-5-(3-[2-[(1-[[trans-4-[7-[trans-4-hydroxycyclohexy1]-2-[(3,3,3-trifluoropropyl)amino]pyrrolo[2,3-d]pyrimidin-5-yl]cyclohexyl]methyl]piperidin-4-yl)methoxy]ethoxy]propy1)-1,3-benzodiazol-1-yl]piperidine-2,6-dione], the Dmax is over 50%.

In the case of `Cc1ncsc1-c1ccc(CNC(=O)[C@@H]2C[C@@H](O)CN2C(=O)[C@@H](NC(=O)COCCOCCOCCOCCN2CCN(Cc3ccc(-c4cn([C@H]5CC[C@H](O)CC5)c5nc(NCCC(F)(F)F)ncc45)cc3)CC2)C(C)(C)C)cc1` [I-173, (2S,4R)-1-[(2S)-3,3-dimethyl-2-(14-[4-[(4-[7-[(1r,4r)-4-hydroxycyclohexyl]-2-[(3,3,3-trifluoropropyl)amino]pyrrolo[2,3-d]pyrimidin-5-yl]phenyl)methyl]piperazin-1-yl]-3,6,9,12-tetraoxatetradecanamido)butanoyl]-4-hydroxy-N-[[4-(4-methyl-1,3-thiazol-5-yl)phenyl]methyl]pyrrolidine-2-carboxamide], the Dmax was in the range of 20 to 50%.

With `Cc1ncsc1-c1ccc(CNC(=O)[C@@H]2C[C@@H](O)CN2C(=O)[C@@H](NC(=O)C2(F)CC2)C(C)(C)C)c(OCCOCCN2CCN(Cc3ccc(-c4cn([C@H]5CC[C@H](O)CC5)c5nc(NCCC(F)(F)F)ncc45)cc3)CC2)c1` [I-174], the Dmax fell in the range of 20 to 50%.

`CCC[C@H](C)Nc1ncc2c(-c3ccc(CN4CCN(C5CC(OCCc6ccc7c(c6)n(C)c(=O)n7C6CCC(=O)NC6=O)C5)CC4)cc3)cn([C@H]3CC[C@H](O)CC3)c2n1` (stereo partly drawn) [I-175, 3-[3-methyl-2-oxo-5-[2-(3-[4-[(4-[2-[(2S)-pentan-2-ylamino]-7-[trans-4-hydroxycyclohexyl]pyrrolo[2,3-d]pyrimidin-5-yl]phenyl)methyl]piperazin-1-yl]cyclobutoxy)ethyl]-1,3-benzodiazol-1-yl]piperidine-2,6-dione]: the Dmax is over 50%.

As to `CCC[C@@H](C)Nc1ncc2c(-c3ccc(CN4CCN(CCCO[C@H]5CCN(Cc6ccc7c(c6)n(C)c(=O)n7C6CCC(=O)NC6=O)C5)CC4)cc3)cn([C@H]3CC[C@H](O)CC3)c2n1` (some centres unmarked) [I-176], the Dmax was over 50%.

Turning to `CCC[C@H](C)Nc1ncc2c(-c3ccc(CN4CCN(CCCO[C@H]5CCN(Cc6ccc7c(c6)n(C)c(=O)n7C6CCC(=O)NC6=O)C5)CC4)cc3)cn([C@H]3CC[C@H](O)CC3)c2n1` (stereo partly drawn) [I-177, 3-(3-methyl-2-oxo-5-[[(3S)-3-(3-[4-[(4-[2-[(2S)-pentan-2-ylamino]-7-[trans-4-hydroxycyclohexyl]pyrrolo[2,3-d]pyrimidin-5-yl]phenyl)methyl]piperazin-1-yl]propoxy)pyrrolidin-1-yl]methyl]-1,3-benzodiazol-1-yl)piperidine-2,6-dione], the Dmax is over 50%.

Regarding `CCC[C@H](C)Nc1ncc2c(-c3ccc(CN4CCN(CCCOC5CN(Cc6ccc7c(c6)n(C)c(=O)n7C6CCC(=O)NC6=O)C5)CC4)cc3)cn([C@H]3CC[C@H](O)CC3)c2n1` (stereo partly drawn) [I-178, 3-(3-methyl-2-oxo-5-[[3-(3-[4-[(4-[2-[(2S)-pentan-2-ylamino]-7-[trans-4-hydroxycyclohexyl]pyrrolo[2,3-d]pyrimidin-5-yl]phenyl)methyl]piperazin-1-yl]propoxy)azetidin-1-yl]methyl]-1,3-benzodiazol-1-yl)piperidine-2,6-dione], the Dmax is over 50%.
